# Assay: gradient 5% acetonitrile 3 min, to 50% in 2 min, to 85% in 15 min, held 3 min, 100 µL/min
# Details: column: Zorbax Extend-C18 2.1 x 50 mm; eluents: water / acetonitrile, 0.1% formic acid
# How it was run: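 Using water and acetonitrile that each contained 0.1% formic acid, mixtures of ~100 pure standards were separated at 100 μL/min on a Zorbax Extend-C18 column (2.1 × 50 mm, 1.8 μm). The HPLC fed a quadrupole time-of-flight mass spectrometer working in positive and negative ionization mode, with dead and dwell volumes of 40 μL and 900 μL. Data were acquired over 3 months. Retention time was read from computationally picked adduct peaks after manual inspection of each.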
row,RP-LC retention time [s],Structure (SMILES)
1,1110,Cc1cccc(NC(=O)CSc2cc(N3CCN(c4ccccc4F)CC3)ncn2)c1
2,1060,Cn1cccc1C(=O)C(=O)Nc1ccccc1C(F)(F)F
3,931,O=C(NCc1c(F)cccc1Cl)C(=O)c1c[nH]c2ccccc12
4,834,COc1ccc(NC(=O)N2CCC3(CC2)NC(=O)c2cccc(Cl)c2N3)c(C)c1
5,703,COc1ccc(C2(C(=O)N3CCCN(Cc4noc(-c5ccccc5)n4)CC3)CC2)cc1
6,855,CC1CCN(C(=O)Cn2c(=O)c3cccn3c3ccc(F)cc32)CC1
7,901,CCCCN(C(=O)c1ccc(C)cc1)C1(C(=O)NCc2ccccc2)CCN(C(C)=O)CC1
8,834,Cc1ccc(Cl)cc1NC(=O)C1CCN(S(=O)(=O)c2ccc3c(c2)NC(=O)C(C)O3)CC1 (centres undefined)
9,753,CC1(C)CC2(CCO1)OC(=O)CC2C(=O)Nc1ccccc1Cl (centres undefined)
10,649,Nc1cc(C2CCN(C(=O)Nc3ccccc3F)CC2)no1
11,664,CCN(CC)C(=O)COc1ccc(NC(=O)C2CC2)cn1
12,843,O=C(Nc1ccc2c(c1)N(C(=O)c1cccs1)CC2)c1ccc2c(c1)OCO2
13,829,O=C(Cc1c[nH]c2ccccc12)N1CCC(NS(=O)(=O)c2ccc(Cl)cc2)CC1
14,796,COc1ccc(CNC(=O)C2c3ccccc3C(=O)N3CCc4ccccc4C23)c(OC)c1 (centres undefined)
15,739,O=C(NC1CC1)[C@@H]1C[C@H](Oc2ccccc2)CN1C(=O)c1n[nH]c2ccccc12
16,818,O=C(Cn1nc(N2CCSCC2)c2ccccc2c1=O)Nc1ccc2c(c1)OCCO2

row,RP-LC retention time [s],Structure (SMILES)
1,750,Cn1cc(S(=O)(=O)N2CCC(C(=O)Nc3ccc(F)cc3)CC2)cc1C(=O)N1CCCC1
2,872,CC(C)c1ccc(NC(=O)C2CCN(C(=O)C3Sc4ccccc4NC3=O)CC2)cc1 (centres undefined)
3,839,CC(C)CC(=O)Nc1ccc(-n2cnc(C(=O)N3CC(C)CC(C)C3)c2)nc1 (centres undefined)
4,870,Cc1ccc(-c2nc3nc(C)cc(C)n3c2Nc2ccc(C(C)C)cc2)cc1
5,788,O=C(c1cccs1)N1CC(C(=O)N2CCN(c3ccccc3Cl)CC2)C1
6,605,Cc1nn(C)c(C)c1CCCN(C)C(=O)COc1ccc(NC(=O)C2CC2)cn1
7,924,COc1ccccc1NS(=O)(=O)c1ccc(-c2c(C)noc2C)cc1
8,892,O=C(NCC(=O)N1CCCc2ccccc21)c1ccc(Br)cc1
9,738,Cc1ccc(C)c(NC(=O)CC2COc3ccccc3NC2=O)c1 (centres undefined)
10,612,COc1ccc(/C=C\c2onc(C)c2NC(C)=O)cc1S(=O)(=O)N1CCN(c2ccccn2)CC1
11,805,Cc1ccc(NC(=O)C2CC(=O)N(c3ccc4c(c3)CCN4C(=O)C3CC3)C2)c(C)c1 (centres undefined)
12,584,CC(=O)c1ccc(Nc2c(C(=O)N3CCCC3)cnc3nc(C)ccc23)cc1
13,631,COc1ccc(OC)c(NC(=O)N2CCC(n3c(C)nc4cccnc43)CC2)c1
14,758,COC(=O)C(NC(=O)N1CCCn2nc(-c3ccc(OC)cc3)cc2C1)c1ccccc1 (centres undefined)
15,827,Cn1nc(N2CCCC(NC(=O)c3cc4cc(Cl)ccc4[nH]3)C2)ccc1=O (centres undefined)
16,865,O=C(NCc1cccc(Cl)c1)C1CCN(c2nnc(-c3ccccc3)o2)CC1

# Second part, the molecule before the results:
row,Structure (SMILES),RP-LC retention time [s]
1,Cc1cc(Cl)cc2sc(N(Cc3ccccn3)C(=O)CN(C)S(C)(=O)=O)nc12,1080
2,COCCn1c(C)cc(O)c(C(c2ccc(OC)cc2)N2CCC(C)CC2)c1=O (centres undefined),845
3,CC1=NS(=O)(=O)N(Cc2ccccc2)C=C1C(=O)OCc1nc(-c2ccc(F)cc2)no1,1140
4,COc1ccc(OC)c(-c2csc(-c3nnn(-c4ccccc4)c3N)n2)c1,1080
5,Cc1ccc(Nc2nc3ccncc3n(C(C)C)c2=O)cc1C,716
6,O=C(Cn1cccc1-c1nnc(-c2ccccc2)o1)N1CCN(c2ccc(Cl)cc2)CC1,1100
7,Cc1occc1-c1nnc2sc(COc3ccc(Cl)cc3)nn12,1000
8,c1ccc(-c2ccc(CNCc3ccc4c(c3)OCO4)o2)cc1,698
9,O=C(c1cccc(Nc2nc3ccccc3n3nnnc23)c1)N1CCN(c2ccccn2)CC1,655
10,O=C(c1ccc(F)c(F)c1)N1CCN(c2cc(-c3ccc(Cl)cc3)[nH]n2)CC1,900
11,COc1ccc(CCNC(=O)CCc2nnc3c4cc(-c5ccc(C)c(C)c5)nn4ccn23)cc1OC,802
12,N#Cc1cccc(S(=O)(=O)N2CCc3nc(-c4ccccc4)ncc3C2)c1,987
13,Cc1ccc(N2C(=O)CN(S(C)(=O)=O)CC2(C)C(=O)NC2CCCCC2)cc1Cl (centres undefined),892
14,CCCN(C)C(=O)c1c(C)oc2c1CN(C(=O)CC)CC2,652
15,COCCCNC(=O)C1c2ccccc2C(=O)N1Cc1ccccc1 (centres undefined),704
16,O=C(NCc1cccnc1Oc1ccccc1)c1ccco1,685
17,COc1cc([C@@H]2c3cc4c(cc3[C@H](O)[C@@H](CO)[C@@H]2C(=O)NCCCc2ccccc2)OCO4)cc(OC)c1OC,761
18,O=C(NCCCn1cccn1)C1CCc2nc(N3CCCC3)ncc2C1 (centres undefined),575
19,O=C(NCCOc1ccccc1)Nc1cccs1,755

row,Structure (SMILES),RP-LC retention time [s]
1,CCN1C(=O)CN(C(=O)c2ccco2)CC12CCOCC2,610
2,O=c1ccc(-c2ccc3c(c2)OCO3)nn1Cc1nc(-c2ccccc2)no1,939
3,CCOC(=O)c1cc(S(=O)(=O)NCCC(=O)N2CCN(c3ccccn3)CC2)cn1C,601
4,c1ccc(-c2nnc(-c3ccccc3)nn2)cc1,1220
5,O=C(Nc1nnc(SCc2nnc(-c3ccccc3)o2)s1)c1ccccc1,866
6,CCOC(=O)c1c(C)[nH]c(CCC(=O)Nc2ccc(F)cc2F)c1C,905
7,O=C(Cn1ccc2ccc(N3CCOCC3)nc21)NC1CCN(Cc2ccccc2)CC1,638
8,CCCCNc1cc(Cl)nc(N)n1,690
9,CCOC(=O)C1CCN(C(=O)c2nc(-c3ccnc(N4CCCC4)c3)no2)CC1,673
10,CCc1nc2cc(-c3noc(-c4cccc(OC)c4OC)n3)ccc2o1,1130
11,CCOc1ccc(CC(=O)NCC2CCN(Cc3ccco3)CC2)cc1,558
12,CCSc1ccc(Cc2nnc(NC(=O)c3cccs3)o2)cc1,807
13,Cc1ccc(C)c(NC(=O)Cn2c(=O)n(-c3ccc(F)cc3)c(=O)c3c2cc(C)n3C)c1,931
14,Cc1ccc(-n2c(=O)c3sccc3n(Cc3nc(-c4cccc(Br)c4)no3)c2=O)cc1,1110
15,CCOC(=O)c1ccc(Nc2nnc(CSc3nc(C)cc(C)n3)s2)cc1,834
16,Cc1cc(C)n(-c2cc(NC(C)C)ncn2)n1,756
17,COc1cc([N+](=O)[O-])ccc1NC(=O)CCS(=O)(=O)c1ccc(Cl)cc1,854
18,CC1CCCN(Cc2nc(Cn3ccn4nc(-c5ccc(F)cc5)cc4c3=O)no2)C1 (centres undefined),687
19,Cc1noc(C)c1S(=O)(=O)N1CCC(Cn2c(C)cnc2-c2ccccc2)C1 (centres undefined),658

row,Structure (SMILES),RP-LC retention time [s]
1,CCCN1C(=O)COc2cc(-c3noc(C(=O)NC4CCCCCC4)n3)ccc21,1150
2,O=C(c1ccc2c(c1)OCO2)N1CCCn2nc(-c3cccs3)cc2C1,796
3,O=C(c1cnccn1)N1CCCCC1c1nc(-c2ccncc2)no1 (centres undefined),661
4,Cc1csc2nc(CSc3nnc(-c4ccccc4F)o3)cc(=O)n12,799
5,CC1=C(c2ccccc2)S(=O)(=O)N=C1N1CCCN(S(=O)(=O)c2cccnc2)CC1,769
6,COCCCNC(=O)CCc1c(C)n(C)c2nc(-c3ccccc3)nn2c1=O,653
7,O=c1[nH]cc(I)cc1I,723
8,CCCCN1C(SCC(=O)NCc2cccs2)=NS(=O)(=O)c2ccccc21,782
9,COCCNC(=O)Nc1nc(-c2ccccc2)c(C(C)=O)s1,685
10,Nc1cc(C2CCN(C(=O)c3cccc(F)c3)CC2)no1,658
11,O=C(Cc1nc(-c2ccccc2)n[nH]1)NC1CCCCC1,714
12,Cn1nc(C(C)(C)C)cc1C(=O)N[C@@H](Cc1cccc(Cl)c1)C(=O)NCC#N,946
13,CN1c2cc(F)ccc2C(=O)NC12CCN(C(=O)Cc1cccc(F)c1)CC2,752
14,CCN1CCn2cc(S(=O)(=O)Nc3cccc(OC)c3)cc2C1=O,700
15,CCOc1ccc(-c2noc(Cn3c(=O)n(CCCOC)c(=O)c4ccccc43)n2)cc1,1050
16,CCc1nc2cc(N3CCCC(C(=O)N4CCC5(CC4)OCCO5)C3)cnc2nc1CC (centres undefined),769
17,COc1ccc(NC(=O)Cn2nc3nc(N4CCCC(C)C4)ccn3c2=O)cc1OC (centres undefined),844
18,Cc1cc(C)n(Cc2ccc(C(=O)N3CCC(c4noc(-c5cccnc5)n4)C3)o2)n1 (centres undefined),696
19,Cc1cc(Cl)ccc1S(=O)(=O)N1CCn2c(nn(CC3CC3)c2=O)C1,872

# Source: the METLIN SMRT retention time set (Domingo-Almenara et al. 2019)
